In PubChem BioAssay AID1033 (Sanford-Burnham Center for Chemical Genomics, 2008):
Activity calls are given as the source filed them. The rule behind the calls is not given here.

What follows are compounds tested against Chaperone protein DnaK (Escherichia coli (strain K12)) (UniProt P0A6Y8) (assay: binders of DnaK substrate-binding domain, biophysical, NMR, chaperone (AID 1033)). Settings: Purified DnaK SBD, NMR ligand binding.
Chaperone protein DnaK (Escherichia coli (strain K12)), sequence (P0A6Y8 whole entry, looked up, the tested form may be a part): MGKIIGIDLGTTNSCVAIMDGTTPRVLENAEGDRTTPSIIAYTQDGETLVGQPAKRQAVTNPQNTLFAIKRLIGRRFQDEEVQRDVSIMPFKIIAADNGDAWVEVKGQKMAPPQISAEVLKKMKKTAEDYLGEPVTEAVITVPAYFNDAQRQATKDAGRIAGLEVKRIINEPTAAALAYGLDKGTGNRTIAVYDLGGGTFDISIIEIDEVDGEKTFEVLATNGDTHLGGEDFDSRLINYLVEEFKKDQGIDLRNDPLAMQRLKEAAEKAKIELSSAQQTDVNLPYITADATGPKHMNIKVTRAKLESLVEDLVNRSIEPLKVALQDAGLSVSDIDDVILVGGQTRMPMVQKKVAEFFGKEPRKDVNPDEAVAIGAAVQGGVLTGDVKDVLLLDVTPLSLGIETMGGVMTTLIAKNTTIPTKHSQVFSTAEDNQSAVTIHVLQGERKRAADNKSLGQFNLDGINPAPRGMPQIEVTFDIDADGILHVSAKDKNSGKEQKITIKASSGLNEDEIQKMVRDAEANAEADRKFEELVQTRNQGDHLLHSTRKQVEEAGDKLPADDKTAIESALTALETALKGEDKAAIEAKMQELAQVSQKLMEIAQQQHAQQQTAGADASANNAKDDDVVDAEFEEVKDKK
`NC[C@H]1O[C@H](O[C@H]2[C@H](O)[C@@H](O[C@H]3O[C@H](CO)[C@@H](O)[C@H](N)[C@H]3O)[C@H](N)C[C@@H]2N)[C@H](N)[C@@H](O)[C@@H]1O` was tested, and the Kd was > 4 mM (inactive).
With `C(=N\n1cnnc1)/c1cccs1` the Kd was > 4 mM (inactive).
In the case of `CC(C)C(C)/C=C/C(C)[C@H]1CCC2C3=CCC4CC(=O)CC[C@]4(C)C3CC[C@@]21C` (stereo partly drawn), the Kd is reported as > 4 mM (inactive).
`Cc1ccsc1/C=c1\sc2ncnn2c1=O` was tested, and the Kd was > 4 mM (inactive).
With `O=C1CNC(=O)N1Cc1ccc(Br)cc1` the Kd was > 4 mM (inactive).
With `c1ccc(CCN2CCN(CCc3ccccn3)CC2)nc1` the Kd was > 4 mM (inactive).
`Cc1cn(C(=O)CN2C(=O)c3ccccc3C2=O)c(C)n1` was tested, and the Kd was > 4 mM (inactive).
For `CCC(C)C(=O)O[C@@H]1C[C@@]2(C)[C@H](c3ccoc3)OC(=O)CC23OC2(C)O[C@]14[C@]1(C)[C@@H](CC(=O)OC)C5(C)CC1(O)[C@](O)(C5OC(=O)C1(C)OC1C)[C@@H](OC(C)=O)[C@]34O2` (stereo partly drawn), the Kd was > 4 mM (inactive).
For `CC(=O)Nc1ccc(N2C(=O)C=CC2=O)cc1C`, the Kd was > 4 mM (inactive).
`NC(=O)CN1C(=O)c2cccc3cccc1c23` was tested, and the Kd was > 4 mM (inactive).
`COc1ccccc1C(=O)Nc1ccccn1` was tested, and the Kd was > 4 mM (inactive).
With `COc1cc2c(cc1O)[C@@H](Cc1ccc(O)cc1)[N+](C)(C)CC2` the Kd was > 4 mM (inactive).
With `Cc1cc(NS(=O)(=O)Cc2ccccc2)no1` the Kd was > 4 mM (inactive).
In the case of `C[C@H]1C(=O)CCC2[C@]3(C)CC[C@@]4(C)C5CC(C)(C)CC[C@]5(C)CC[C@]4(C)C3CC[C@@]21C` (stereo partly drawn), the Kd is reported as > 4 mM (inactive).
`O=C1CC(c2ccccc2)n2ncnc2N1` (stereo not drawn) was tested, and the Kd was > 4 mM (inactive).
In the case of `O=C(O)C1CNc2ccccc2O1` (stereo not drawn), the Kd is reported as > 4 mM (inactive).
In the case of `O=C1NNC(=O)C2C3c4ccccc4C(c4ccccc43)C12` (stereo not drawn), the Kd is reported as > 4 mM (inactive).
`Cc1ccc(C(=O)N2CCC(C(=O)O)CC2)cc1` was tested, and the Kd was > 4 mM (inactive).
In the case of `CC1(C)CC[C@]2(C(=O)O)CC[C@]3(C)C(=CCC4[C@@]5(C)CC[C@@H](O)C(C)(C)C5CC[C@]43C)C2C1` (stereo partly drawn), the Kd is reported as > 4 mM (inactive).
For `O=C(O)c1cc2ccccc2cn1`, the Kd was > 4 mM (inactive).
In the case of `NC(=O)CN1CC(c2ccccc2)CC1=O` (stereo not drawn), the Kd is reported as > 4 mM (inactive).
With `CN1CCN(c2ccc(C(=O)O)cc2)CC1` the Kd was > 4 mM (inactive).
For `COC(=O)c1cccs1`, the Kd was > 4 mM (inactive).
`Nc1ccc(S(=O)(=O)N2CCCCC2)cc1` was tested, and the Kd was > 4 mM (inactive).
For `Cn1ncc(NC(=O)Nc2ccc(F)cc2F)c1C(N)=O`, the Kd was > 4 mM (inactive).
With `CCOC(=O)Cc1cc(=O)n2[nH]c(C)cc2n1` the Kd was > 4 mM (inactive).
With `COc1ccc(-c2nnsc2N)cc1` the Kd was > 4 mM (inactive).
For `O=C(Nc1ccon1)c1ccc2c(c1)OCO2`, the Kd was > 4 mM (inactive).
With `O=C(O)CCn1cncn1` the Kd was > 4 mM (inactive).
With `CCn1c(-c2c[nH]c3ccccc23)n[nH]c1=S` the Kd was > 4 mM (inactive).
`O=c1c[n+]([O-])c2ccccc2n1OCc1ccccc1` was tested, and the Kd was > 4 mM (inactive).
With `CC(C)NC(=O)Cc1c(O)c2ccccc2[nH]c1=O` the Kd was > 4 mM (inactive).
In the case of `O=C(O)CN1CCN(C2CCCC2)CC1`, the Kd is reported as > 4 mM (inactive).
With `Cc1nnc(SCC(=O)N2CCCCC2)s1` the Kd was > 4 mM (inactive).
For `NC(=O)CCn1cnc2ccccc21`, the Kd was > 4 mM (inactive).
For `O=C(O)C1CCN(S(=O)(=O)c2cccs2)CC1`, the Kd was > 4 mM (inactive).
With `COC(=O)c1cccc(Cn2nnc3ccccc3c2=O)c1` the Kd was > 4 mM (inactive).
`CC(=O)Nc1cccc(-c2nnc(-c3ccccc3)o2)c1` was tested, and the Kd was > 4 mM (inactive).
For `CC(=O)c1cccc(NC(=O)NN2CCOCC2)c1`, the Kd was > 4 mM (inactive).
In the case of `NC(=O)CCS(=O)(=O)CCN1CCOCC1`, the Kd is reported as > 4 mM (inactive).
Compound `O=C(NCc1cccc2ccsc12)c1cccs1` has a Kd of less than 0.2 mM.
For `COc1ccc(S(=O)(=O)N2CCC(C(N)=O)CC2)cc1`, the Kd was > 4 mM (inactive).
For `C[n+]1ccc(C(=O)[O-])cc1`, the Kd was > 4 mM (inactive).
In the case of `Nc1cccnc1N1CCOCC1`, the Kd is reported as > 4 mM (inactive).
In the case of `COc1ccc2c(c1)OC[C@@H](Cc1ccc(OC)c(OC)c1)[C@H]2O`, the Kd is reported as > 4 mM (inactive).
For `Cc1ccc(C(=O)N2CC(=O)NC(=O)C2)cc1`, the Kd was > 4 mM (inactive).
With `CC(=O)Nc1ccc(NC(=O)N2CCOCC2)cc1` the Kd was > 4 mM (inactive).
In the case of `Cc1ccc(CN2CCN(C(=O)C3CCC3)CC2)cc1`, the Kd is reported as > 4 mM (inactive).
For `Cc1cc(C)c(NC(=O)CN2CCC(O)CC2)c(C)c1`, the Kd was > 4 mM (inactive).
`CSc1nc(C)c(Oc2ccccc2)c(=O)n1C` was tested, and the Kd was > 4 mM (inactive).
For `C=CCn1c(N)c(C(=O)N2CCOCC2)sc1=S`, the Kd was > 4 mM (inactive).
`COC(=O)c1c(C)cc(OC)cc1O` was tested, and the Kd was > 4 mM (inactive).
In the case of `Cc1nc(-c2cccc(N)c2)cs1`, the Kd is reported as > 4 mM (inactive).
With `O=C(O)CSCc1c(F)cccc1Cl` the Kd was > 4 mM (inactive).
In the case of `C/C=C(\C)c1nnc(NC(=O)C(C)C)s1`, the Kd is reported as > 4 mM (inactive).
In the case of `COc1ccc(C(=O)NC2=NCCS2)cc1OC`, the Kd is reported as > 4 mM (inactive).
For `O=C(Nn1cnnc1)c1csc2c1CCCC2`, the Kd was > 4 mM (inactive).
With `O=C1NC(=S)N/C1=C/c1ccsc1` the Kd was > 4 mM (inactive).
For `CN1CCN(c2ccc(CN)cc2)CC1`, the Kd was > 4 mM (inactive).
With `NCCc1ccc(S(N)(=O)=O)cc1` the Kd was > 4 mM (inactive).
For `CC1(C)C=Cc2cc3ccc(=O)oc3cc2O1`, the Kd was > 4 mM (inactive).
For `NC(CSCSCC(N)C(=O)O)C(=O)O` (stereo not drawn), the Kd was > 4 mM (inactive).
`Nc1cccc2cccnc12` was tested, and the Kd was > 4 mM (inactive).
In the case of `O=C(NCc1ccccc1Br)c1cccs1`, the Kd is reported as less than 0.2 mM.
In the case of `CC1(C)CC2C1CC[C@]1(C)CCC3C(C(=O)O)CC(=O)O[C@@]32C1` (stereo partly drawn), the Kd is reported as > 4 mM (inactive).
With `O=C1C=CC2=C3c4cc(O)c(O)cc4C[C@@]3(O)COC2=C1` the Kd was > 4 mM (inactive).
`CC(CCC(=O)O)[C@H]1CCC2C3C[C@H](O)[C@@H]4C[C@H](O)CC[C@]4(C)C3CC[C@@]21C` (stereo partly drawn) was tested, and the Kd was > 4 mM (inactive).
In the case of `CSc1ccccc1NC(=O)c1ccoc1C`, the Kd is reported as > 4 mM (inactive).
In the case of `OCc1ccc2c(c1)OCCO2`, the Kd is reported as > 4 mM (inactive).
With `O=S(=O)(c1cccc2cccnc12)N1CCOCC1` the Kd was > 4 mM (inactive).
In the case of `O=C(O)c1snnc1-c1ccccc1`, the Kd is reported as > 4 mM (inactive).
In the case of `Cc1nc(-c2cccc(C(=O)O)c2)cs1`, the Kd is reported as > 4 mM (inactive).
In the case of `COCC(=O)NC1CC(C)(C)NC(C)(C)C1`, the Kd is reported as > 4 mM (inactive).
`Cc1ccccc1C(=O)Nc1cccc(N)c1` was tested, and the Kd was > 4 mM (inactive).
With `CCOc1cc(C)c(Cl)cc1S(=O)(=O)N(C)C` the Kd was > 4 mM (inactive).
With `CCCN1CCC(N2CCC(O)CC2)CC1` the Kd was > 4 mM (inactive).
With `CCc1cccc(C)c1NC(=O)c1cc(C)oc1C` the Kd was > 4 mM (inactive).
In the case of `CC(O)(C(=O)O)c1ccccc1` (stereo not drawn), the Kd is reported as > 4 mM (inactive).
In the case of `CC(=O)O[C@@H]1CC2C(C)(C)C=CC(=O)[C@]2(C)C2CC[C@@]3(C)[C@H](c4ccoc4)OC(=O)C4OC43[C@@]21C` (stereo partly drawn), the Kd is reported as > 4 mM (inactive).
For `CC1=C(/C=C/C(C)=C/C=C/C(C)=C/C=C/C=C(C)/C=C/C=C(C)/C=C/C(=O)[C@]2(C)C[C@@H](O)CC2(C)C)C(C)(C)C[C@H](O)C1`, the Kd was > 4 mM (inactive).
For `Cc1nc2c(=O)[nH]c3ccccc3c2o1`, the Kd was > 4 mM (inactive).
`Cn1c(=O)c2c([nH]c(=O)n2C)n(C)c1=O` was tested, and the Kd was > 4 mM (inactive).
For `O=c1[nH]c2sc3c(c2c2ncnn12)CCCC3`, the Kd was > 4 mM (inactive).
With `O=C(O)c1ccc(NCc2cccnc2)cc1` the Kd was > 4 mM (inactive).
For `O=c1cc(O)nc(SCc2ccccc2)[nH]1`, the Kd was > 4 mM (inactive).
In the case of `Cc1nc2ccccc2c(=O)n1/N=C/c1ccco1`, the Kd is reported as > 4 mM (inactive).
With `Nc1nnc(COc2cccc(C(F)(F)F)c2)s1` the Kd was > 4 mM (inactive).
For `O=C(CCc1n[nH]c(=O)[nH]c1=O)NCc1ccccc1`, the Kd was > 4 mM (inactive).
`O=C(Oc1ccc2c(c1)OCC2=O)c1ccccc1` was tested, and the Kd was > 4 mM (inactive).
With `C[C@H]1O[C@@H](O[C@H]2[C@@H](O)C[C@H](O[C@H]3[C@@H](O)C[C@H](O[C@H]4CC[C@]5(C)C6C[C@@H](O)[C@]7(C)[C@@H](C8=CC(=O)OC8)CC[C@]7(O)C6CC[C@@H]5C4)O[C@@H]3C)O[C@@H]2C)C[C@H](O)[C@@H]1O` (stereo partly drawn) the Kd was > 4 mM (inactive).
In the case of `CS(=O)(=O)NC1CCN(Cc2ccccc2)CC1`, the Kd is reported as > 4 mM (inactive).
With `C[C@@H]1CC[C@]2(C(=O)O)CC[C@]3(C)C(=CCC4[C@@]5(C)CC[C@H](O)C(C)(C)C5CC[C@]43C)C2[C@H]1C` (stereo partly drawn) the Kd was > 4 mM (inactive).
`CCN1CCC(=NO)CC1` was tested, and the Kd was > 4 mM (inactive).
`Oc1ccccc1-c1nnco1` was tested, and the Kd was > 4 mM (inactive).
`O=C(O)c1cccnc1-c1nc2ccccc2s1` was tested, and the Kd was > 4 mM (inactive).
In the case of `COc1cc(/C=C/C(=O)/C=C(O)/C=C/c2ccc(O)c(OC)c2)ccc1O`, the Kd is reported as > 4 mM (inactive).
With `O=C(Cc1c(F)cccc1Cl)Nc1cccnc1` the Kd was > 4 mM (inactive).
`Cc1c(F)cccc1NS(=O)(=O)c1ccccc1C#N` was tested, and the Kd was > 4 mM (inactive).
`OCc1ccc(-n2cccn2)cc1` was tested, and the Kd was > 4 mM (inactive).
`OCC1CNc2ccccc2O1` (stereo not drawn) was tested, and the Kd was > 4 mM (inactive).
`Cc1ccc(CNC(=O)c2ccc([N+](=O)[O-])o2)cc1` gave a Kd of less than 0.2 mM.
For `CCOC(=O)CSc1nnc(C)c(=O)[nH]1`, the Kd was > 4 mM (inactive).
`CC(=O)Oc1cc(-c2coc3cc(OC(C)=O)c(OC(C)=O)c(OC(C)=O)c3c2=O)cc(OC(C)=O)c1OC(C)=O` was tested, and the Kd was > 4 mM (inactive).
`CC(=O)Nc1ccc(C(=O)n2nc(C)cc2C)cc1` was tested, and the Kd was > 4 mM (inactive).
`CCOC(=O)CNC(=O)CSc1nnc(C)c(=O)[nH]1` was tested, and the Kd was > 4 mM (inactive).
With `CC(C)(C)c1ccc(SCC(N)=O)cc1` the Kd was > 4 mM (inactive).
In the case of `COc1ccc(-c2c(OC)c3c(OC)c4c(cc3oc2=O)OC(C)(C)C=C4)cc1`, the Kd is reported as > 4 mM (inactive).
`COc1cccc(-c2nn(-c3ccccc3)cc2CO)c1` was tested, and the Kd was > 4 mM (inactive).
With `CC(C)=CC1C(C(=O)O)C1(C)C` (stereo not drawn) the Kd was > 4 mM (inactive).
With `COc1cc(C(C)=O)cc(OC)c1O` the Kd was > 4 mM (inactive).
For `O=C(O)c1ccc(Oc2ccccc2)nc1`, the Kd was > 4 mM (inactive).
With `NC(=O)c1cccc2c(=O)oc3ccccc3c12` the Kd was > 4 mM (inactive).
`CN(C)S(=O)(=O)c1ccc(C(=O)NN)cc1` was tested, and the Kd was > 4 mM (inactive).
